System: 292921-168-R-J2-PDC complex spheroid growth
Test: Anticancer human tumor 292921-168-R-J2-PDC patient-derived pancreatic carcinoma cell line growth inhibition [AhR]
Conditions: for IC50: curve of first compound; for viability, T/C: stronger effect = lower value
Procedure, shortened: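 Complex tumor spheroids co-cultured with HUVEC and human MSC stroma; AhR antagonists tested in combination with standard-of-care and investigational agents. Top concentration at or near clinical Cmax (else 10 microM), half-log dilutions; growth expressed as percent test/control.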

[1] = second compound 0.1 µM, first compound 0.0316 µM
[2] = second compound 0.1 µM, first compound 0.1 µM
[3] = second compound 0.1 µM, first compound 0.316 µM
[4] = second compound 0.1 µM, first compound 1 µM
[5] = second compound 0.316 µM, first compound 0.0316 µM
[6] = second compound 0.316 µM, first compound 0.1 µM
[7] = second compound 0.316 µM, first compound 0.316 µM
[8] = second compound 0.316 µM, first compound 1 µM
[9] = second compound 1 µM, first compound 0.0316 µM
[10] = second compound 1 µM, first compound 0.1 µM
[11] = second compound 1 µM, first compound 0.316 µM
[12] = second compound 1 µM, first compound 1 µM
[13] = second compound 3.16 µM, first compound 0.0316 µM
[14] = second compound 3.16 µM, first compound 0.1 µM
[15] = second compound 3.16 µM, first compound 0.316 µM
[16] = second compound 3.16 µM, first compound 1 µM
[17] = second compound 10 µM, first compound 0.0316 µM
[18] = second compound 10 µM, first compound 0.1 µM
[19] = second compound 10 µM, first compound 0.316 µM
[20] = second compound 10 µM, first compound 1 µM
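Further: spheroids exposed to compounds for seven days after three days of growth.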

IC50 (second compound 0.1 µM)	IC50 (second compound 0.316 µM)	IC50 (second compound 1 µM)	IC50 (second compound 3.16 µM)	IC50 (second compound 10 µM)	SMILES	viability, T/C [1]	viability, T/C [2]	viability, T/C [3]	viability, T/C [4]	viability, T/C [5]	viability, T/C [6]	viability, T/C [7]	viability, T/C [8]	viability, T/C [9]	viability, T/C [10]	viability, T/C [11]	viability, T/C [12]	viability, T/C [13]	viability, T/C [14]	viability, T/C [15]	other results
38.5 nM	43.9 nM	33.1 nM	20 nM	13.2 nM	CC1COCCN1c1cc(-c2ccnn2C)c2ccnc(-c3ccn[nH]3)c2n1 (stereo not given) + Cc1ccccc1N=Nc1ccc(NC(=O)c2ccnn2C)c(C)c1	54.5%	26.6%	18.5%	15.5%	58.9%	28.8%	18%	16.2%	51.8%	25%	19.3%	15.7%	37.3%	23.2%	16.7%	viability, T/C (second compound 0.1 µM, first compound 0.00316 µM): 95.7%; viability, T/C (second compound 0.1 µM, first compound 0.01 µM): 86.6%; viability, T/C (second compound 0.316 µM, first compound 0.00316 µM): 90.8%; viability, T/C (second compound 0.316 µM, first compound 0.01 µM): 81.6%; viability, T/C (second compound 1 µM, first compound 0.00316 µM): 83.4%; viability, T/C (second compound 1 µM, first compound 0.01 µM): 74.3%; viability, T/C (second compound 3.16 µM, first compound 0.00316 µM): 79.2%; viability, T/C (second compound 3.16 µM, first compound 0.01 µM): 68.1%; viability, T/C [16]: 13.8%; viability, T/C (second compound 10 µM, first compound 0.00316 µM): 57.8%; viability, T/C (second compound 10 µM, first compound 0.01 µM): 57%; viability, T/C [17]: 29.8%; viability, T/C [18]: 25.1%; viability, T/C [19]: 19.2%; viability, T/C [20]: 15.8%
1950 nM	1930 nM	1650 nM	1320 nM	529 nM	COc1ccc([C@@H](O)c2cc(-c3ncnc4cc(N5CCOCC5)ccc34)c(F)cc2Cl)nn1 + Cc1ccccc1N=Nc1ccc(NC(=O)c2ccnn2C)c(C)c1	89.1%	81.5%	81%	56.2%	90%	80.9%	79.2%	59.7%	76.5%	81.6%	71.6%	55.8%	70.7%	68%	66.6%	viability, T/C (second compound 0.1 µM, first compound 3.16 µM): 44.9%; viability, T/C (second compound 0.1 µM, first compound 10 µM): 27%; viability, T/C (second compound 0.316 µM, first compound 3.16 µM): 42.1%; viability, T/C (second compound 0.316 µM, first compound 10 µM): 24%; viability, T/C (second compound 1 µM, first compound 3.16 µM): 41%; viability, T/C (second compound 1 µM, first compound 10 µM): 22.4%; viability, T/C [16]: 52%; viability, T/C (second compound 3.16 µM, first compound 3.16 µM): 38.5%; viability, T/C (second compound 3.16 µM, first compound 10 µM): 21%; viability, T/C [17]: 57.4%; viability, T/C [18]: 54.6%; viability, T/C [19]: 53.7%; viability, T/C [20]: 46.8%; viability, T/C (second compound 10 µM, first compound 3.16 µM): 34.9%; viability, T/C (second compound 10 µM, first compound 10 µM): 20.4%

Source: PubChem BioAssay AID1918994 (Molecular Pharmacology Branch, DTP, NCI, 2023)
